This note sets out measurements from patent publication US20020019527A1 (priority 2000, published 2002).

Counter-ions that a name gives are not always drawn.

T1 sequence (P49355 whole entry, one chain of several): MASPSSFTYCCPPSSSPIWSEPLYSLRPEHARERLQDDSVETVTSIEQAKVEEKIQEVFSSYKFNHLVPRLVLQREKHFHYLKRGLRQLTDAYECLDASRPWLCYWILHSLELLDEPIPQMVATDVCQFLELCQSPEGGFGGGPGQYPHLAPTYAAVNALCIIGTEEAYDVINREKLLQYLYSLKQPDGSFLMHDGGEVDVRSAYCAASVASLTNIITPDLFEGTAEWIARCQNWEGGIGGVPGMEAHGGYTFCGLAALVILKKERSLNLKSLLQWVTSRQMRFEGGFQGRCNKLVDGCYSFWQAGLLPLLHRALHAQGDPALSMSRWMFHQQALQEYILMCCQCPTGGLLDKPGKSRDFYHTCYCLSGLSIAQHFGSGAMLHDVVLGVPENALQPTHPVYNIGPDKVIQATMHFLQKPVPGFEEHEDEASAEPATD

The first assay has as its target T1, Farnesyltransferase (FTase) (Bos taurus, UniProt P29702+P49355).
T1 construct: precipitation from a beef brain homogenate; from tissue; host or cells: bovine brain
The experiment in a line: Farnesyltransferase inhibition (scintillation proximity assay, [3H]-FPP / biotin-K-ras peptide).
Details: not given
The format is biochemical, bovine. In a few lines:
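Read-out: [3H]-FPP prenylation of a biotinylated K-ras peptide by SPA, measured 1 h after quenching. Enzyme: FTase purified from bovine brain (ammonium sulfate cut, DEAE Sepharose), free of GGTase I and II. Test compounds in ethanol, diluted 10-fold into the reaction.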
Background: Scintillation proximity formats need no separation of bound from free tracer.
For `Cc1ccc(COC(c2ccc(C#N)c(-c3ccccc3C)c2)c2cncn2C)cc1.Cl` (centres unmarked) [Example 127], the “% Inhibition at 10^−6M” value is 93%.

Consider `Cc1cccc(COC(c2ccc(C#N)c(-c3ccccc3C)c2)c2cncn2C)c1.Cl` (centres unmarked) [Example 128], for which the “% Inhibition at 10^−6M” value worked out at 94%.

As to `Cc1ccccc1COC(c1ccc(C#N)c(-c2ccccc2C)c1)c1cncn1C.Cl` (centres unmarked) [Example 135], the “% Inhibition at 10^−6M” value was 94%.

`Cc1ccccc1-c1cc(C(OCc2ccc(C(F)(F)F)cc2)c2cncn2C)ccc1C#N.Cl` (centres unmarked) [Example 139]: the “% Inhibition at 10^−6M” value came out at 97%.

With `Cc1ccccc1-c1cc(C(OCc2ccccc2[N+](=O)[O-])c2cncn2C)ccc1C#N.Cl` (centres unmarked) [Example 142], the “% Inhibition at 10^−6M” value is given as 94%.

For `Cc1ccccc1-c1cc(C(OCc2cccc(OC(F)(F)F)c2)c2cncn2C)ccc1C#N.Cl` (centres unmarked) [Example 143], the “% Inhibition at 10^−6M” value came to 97%.

Take `COc1cc(COC(c2ccc(C#N)c(-c3ccccc3C)c2)c2cncn2C)cc(OC)c1OC.Cl` (centres unmarked) [Example 148]: the “% Inhibition at 10^−6M” value worked out at 95%.

Regarding `Cc1ccccc1-c1cc(C(OCc2cccc3cccnc23)c2cncn2C)ccc1C#N.Cl` (centres unmarked) [Example 149], the “% Inhibition at 10^−6M” value amounted to 93%.

Regarding `Cc1ccccc1-c1cc(C(OCc2ccc(S(C)(=O)=O)cc2)c2cncn2C)ccc1C#N.Cl` (centres unmarked) [Example 151], the “% Inhibition at 10^−6M” value was found to be 94%.

The assay is the same for the next values; noted with them: compound at 10^−6 M; bovine FTase, 37° C., 30 minutes.
`Cc1ccccc1-c1cc(C(OCc2ccccc2C#N)c2cncn2C)ccc1C#N` (centres unmarked) [Example 126, 5-(((2-cyanobenzyl)oxy)(1-methyl-1H-imidazol-5-yl)methyl)-2′-methyl(1,1′-biphenyl)-2-carbonitrile hydrochloride] showed an inhibition at 1 µM of 92%.

As to `Cc1ccccc1-c1cc(C(OCc2cc(F)ccc2F)c2cncn2C)ccc1C#N` (centres unmarked) [Example 129, 5-(((2,5-difluorobenzyl)oxy)(1-methyl-1H-imidazol-5-yl)methyl)-2′-methyl(1,1′-biphenyl)-2-carbonitrile hydrochloride], the inhibition at 1 µM amounted to 93%.

`COC(=O)c1ccc(COC(c2ccc(C#N)c(-c3ccccc3C)c2)c2cncn2C)cc1` (centres unmarked) [Example 130, methyl 4-(((6-cyano-2′-methyl(1,1′-biphenyl)-3-yl)(1-methyl-1H-imidazol-5-yl)methoxy)methyl)benzoate hydrochloride] registered an inhibition at 1 µM of 97%.

In the case of `Cc1ccccc1-c1cc(C(OCc2ccccc2Cl)c2cncn2C)ccc1C#N` (centres unmarked) [Example 132, 5-(((2-chlorobenzyl)oxy)(1-methyl-1H-imidazol-5-yl)methyl)-2′-methyl(1,1′-biphenyl)-2-carbonitrile hydrochloride], the inhibition at 1 µM was 94%.

With `Cc1ccccc1-c1cc(C(OCc2ccc(Cl)cc2)c2cncn2C)ccc1C#N` (centres unmarked) [Example 133, 5-(((4-chlorobenzyl)oxy)(1-methyl-1H-imidazol-5-yl)methyl)-2′-methyl(1,1′-biphenyl)-2-carbonitrile hydrochloride], the inhibition at 1 µM came to 97%.

Regarding `COc1cccc(COC(c2ccc(C#N)c(-c3ccccc3C)c2)c2cncn2C)c1` (centres unmarked) [Example 134, 5-(((3-methoxybenzyl)oxy)(1-methyl-1H-imidazol-5-yl)methyl)-2′-methyl(1,1′-biphenyl)-2-carbonitrile hydrochloride], the inhibition at 1 µM was found to be 93%.

Compound `Cc1ccccc1-c1cc(C(OCc2cccc(F)c2)c2cncn2C)ccc1C#N` (centres unmarked) [Example 136, 5-(((3-fluorobenzyl)oxy)(1-methyl-1H-imidazol-5-yl)methyl)-2′-methyl(1,1′-biphenyl)-2-carbonitrile hydrochloride] displayed an inhibition at 1 µM of 95%.

`Cc1ccccc1-c1cc(C(OCc2cc(Cl)nc(Cl)c2)c2cncn2C)ccc1C#N` (centres unmarked) [Example 137, 5-(((2,6-dichloro-4-pyridinyl)methoxy)(1-methyl-1H-imidazol-5-yl)methyl)-2′-methyl(1,1′-biphenyl)-2-carbonitrile hydrochloride] yielded an inhibition at 1 µM of 96%.

`Cc1ccccc1-c1cc(C(OCc2ccccc2F)c2cncn2C)ccc1C#N` (centres unmarked) [Example 138, 5-(((2-fluorobenzyl)oxy)(1-methyl-1H-imidazol-5-yl)methyl)-2′-methyl(1,1′-biphenyl)-2-carbonitrile hydrochloride] displayed an inhibition at 1 µM of 92%.

`Cc1cc(C)cc(COC(c2ccc(C#N)c(-c3ccccc3C)c2)c2cncn2C)c1` (centres unmarked) [Example 140, 5-(((3,5-dimethylbenzyl)oxy)(1-methyl-1H-imidazol-5-yl)methyl)-2′-methyl(1,1′-biphenyl)-2-carbonitrile hydrochloride] came in with an inhibition at 1 µM of 94%.

`Cc1ccccc1-c1cc(C(OCc2ccc(F)cc2C(F)(F)F)c2cncn2C)ccc1C#N` (centres unmarked) [Example 141, 5-(((4-fluoro-2-(trifluoromethyl)benzyl)oxy)(1-methyl-1H-imidazol-5-yl)methyl)-2′-methyl(1,1′-biphenyl)-2-carbonitrile hydrochloride] came in with an inhibition at 1 µM of 95%.

Compound `Cc1cc(COC(c2ccc(C#N)c(-c3ccccc3C)c2)c2cncn2C)c(C#N)cc1C#N` (centres unmarked) [Example 144, 4-(((6-cyano-2′-methyl(1,1′-biphenyl)-3-yl)(1-methyl-1H-imidazol-5-yl)methoxy)methyl)-6-methylisophthalonitrile hydrochloride] registered an inhibition at 1 µM of 96%.

For the compound `Cc1ccccc1-c1cc(C(OCc2ccc(-c3ccccc3C#N)cc2)c2cncn2C)ccc1C#N` (centres unmarked) [Example 145, 5-(((2′-cyano(1,1′-biphenyl)-4-yl)methoxy)(1-methyl-1H-imidazol-5-yl)methyl)-2′-methyl(1,1′-biphenyl)-2-carbonitrile hydrochloride], the inhibition at 1 µM is 97%.

As for `COC(=O)c1cccc(COC(c2ccc(C#N)c(-c3ccccc3C)c2)c2cncn2C)c1` (centres unmarked) [Example 146, methyl 3-(((6-cyano-2′-methyl(1,1′-biphenyl)-3-yl)(1-methyl-1H-imidazol-5-yl)methoxy)methyl)benzoate hydrochloride], testing at 1 µM gave an inhibition of 93%.

`Cc1ccccc1-c1cc(C(OCc2ccc(F)c(F)c2)c2cncn2C)ccc1C#N` (centres unmarked) [Example 147, 5-(((3,4-difluorobenzyl)oxy)(1-methyl-1H-imidazol-5-yl)methyl)-2′-methyl(1,1′-biphenyl)-2-carbonitrile hydrochloride] registered an inhibition at 1 µM of 96%.

Regarding `COc1cc(COC(c2ccc(C#N)c(-c3ccccc3C)c2)c2cncn2C)cc(OC)c1` (centres unmarked) [Example 150, 5-(((3,5-dimethoxybenzyl)oxy)(1-methyl-1H-imidazol-5-yl)methyl)-2′-methyl(1,1′-biphenyl)-2-carbonitrile hydrochloride], the inhibition at 1 µM came out at 93%.

As to `Cc1ccccc1-c1cc(C(OCc2cc3c(cc2Cl)OCO3)c2cncn2C)ccc1C#N` (centres unmarked) [Example 152, 5-(((6-chloro-1,3-benzodioxol-5-yl)methoxy)(1-methyl-1H-imidazol-5-yl)methyl)-2′-methyl(1,1′-biphenyl)-2-carbonitrile hydrochloride], at 1 µM the inhibition was 89%.

Compound `Cc1ccccc1-c1cc(C(OCc2ccc(C(C)C)cc2)c2cncn2C)ccc1C#N` (centres unmarked) [Example 153, 5-(((4-isopropylbenzyl)oxy)(1-methyl-1H-imidazol-5-yl)methyl)-2′-methyl(1,1′-biphenyl)-2-carbonitrile hydrochloride] showed an inhibition at 1 µM of 92%.

The compound `Cc1ccc(COC(c2ccc(C#N)c(-c3ccccc3C)c2)c2cncn2C)cc1C` (centres unmarked) [Example 154, 5-(((3,4-dimethylbenzyl)oxy)(1-methyl-1H-imidazol-5-yl)methyl)-2′-methyl(1,1′-biphenyl)-2-carbonitrile hydrochloride] came in with an inhibition at 1 µM of 95%.

Regarding `Cc1ccccc1-c1cc(C(OCc2ccc(OCc3ccccc3)cc2)c2cncn2C)ccc1C#N` (centres unmarked) [Example 155, 5-(((4-(benzyloxy)benzyl)oxy)(1-methyl-1H-imidazol-5-yl)methyl)-2′-methyl(1,1′-biphenyl)-2-carbonitrile hydrochloride], testing at 1 µM gave an inhibition of 92%.

`Cc1ccccc1-c1cc(C(OCc2cc(F)cc3c2OCOC3)c2cncn2C)ccc1C#N` (centres unmarked) [Example 156, 5-(((6-fluoro-4H-1,3-benzodioxin-8-yl)methoxy)(1-methyl-1H-imidazol-5-yl)methyl)-2′-methyl(1,1′-biphenyl)-2-carbonitrile hydrochloride] registered an inhibition at 1 µM of 92%.

Regarding `Cc1ccccc1-c1cc(C(OCc2ccc(Cl)cc2Cl)c2cncn2C)ccc1C#N` (centres unmarked) [Example 157, 5-(((2,4-dichlorobenzyl)oxy)(1-methyl-1H-imidazol-5-yl)methyl)-2′-methyl(1,1′-biphenyl)-2-carbonitrile hydrochloride], the inhibition at 1 µM amounted to 97%.

`Cc1ccccc1-c1cc(C(OCc2noc(C(C)(C)C)n2)c2cncn2C)ccc1C#N` (centres unmarked) [Example 159, 5-(((5-(tert-butyl)-1,2,4-oxadiazol-3-yl)methoxy)(1-methyl-1H-imidazol-5-yl)methyl)-2′-methyl(1,1′-biphenyl)-2-carbonitrile hydrochloride]: the inhibition at 1 µM worked out at 91%.

For `Cc1ccccc1-c1cc(C(OCc2ccc(I)cc2)c2cncn2C)ccc1C#N` (centres unmarked) [Example 160, 5-(((4-iodobenzyl)oxy)(1-methyl-1H-imidazol-5-yl)methyl)-2′-methyl(1,1′-biphenyl)-2-carbonitrile hydrochloride], 1 µM produced 96% inhibition.

As for `Cc1ccccc1-c1cc(C(OCc2ccc(-c3ccccc3)cc2)c2cncn2C)ccc1C#N` (centres unmarked) [Example 161, 5-(((1,1′-biphenyl)-4-ylmethoxy)(1-methyl-1H-imidazol-5-yl)methyl)-2′-methyl(1,1′-biphenyl)-2-carbonitrile hydrochloride], the inhibition at 1 µM was found to be 96%.

Staying with this assay, now noted: compound at 10^−6 M; bovine FTase, 37° C., 30 minutes; hydrochloride.
Take `Cc1cc(C)cc(COC(c2ccc(C#N)c(-c3ccccc3C)c2)c2cncn2C)c1.Cl` (centres unmarked) [Example 158, 5-(((3,5-dimethylbenzyl)oxy)(1-methyl-1H-imidazol-5-yl)methyl)-2′-methyl(1,1′-biphenyl)-2-carbonitrile hydrochloride]: the “% Inhibition at 10^−6M” value is 95%.

One may read the % Inhibition as the percentage by which the read-out fell short of the control. As usually defined, the inhibition is the share of the control response that was lost under treatment.
